Measured values as given in patent publication US20100016256A1, “Taxane Compounds for Treating Eye Disease” (priority 2008, published 2010).
Read-outs that look alike come from different tables or passages of the source.

Assays:
[1] = test system: choroidal neovascularization by laser burns on the eye; details: rats
Procedure: Groups of 8 rats/dosage group or vehicle are neovascularized by laser burns on the eye. Afterwards, the eye is immediately treated with a cobalamin-paclitaxel bioconjugate prepared in accordance with Example 1 at a dose of 1.5 μg/2 μL, 5.0 μg/2 μL, and 15 μg/2 μL (indicated as B.C. in FIG. 1). The treatment regimen also includes a vehicle and Kenacort Retard® (4% triamcinolone acetonide), as a positive control. Each treatment is scored at 7, 14, and 21 days post-treatment by infusing the eye with fluorescein and scoring the leakage using angiography. A score of 0 indicates no leakage while a score of 3 indicates severe leakage. The results of the test are shown in FIG. 1 as the percentage of […] scoring 3.

[2] = test system: viable circulating endothelial cell precursors (CEPs); details: mice; for Viable CEPs per microliter of peripheral blood: after 28 days
Procedure: (§1) A group of 6 mice are administered various dosages of the cobalamin-paclitaxel bioconjugate prepared in accordance with Example 1 over a 28-day period. The effects on counts of viable circulating endothelial cell precursors and white blood cells are measured after 28 days.

white blood cells = details: mice; for White blood cells per 10^4 peripheral blood cells: after 28 days
Procedure: as §1

[3] = paclitaxel conjugated to cobalt atom of cobalamin
[4] = test system: blood vessel lesions of the eye; details: rats
Excerpt: In another study, flat mount evaluation of the eyes can be carried out at the end of the study because angiography may not provide a full evaluation of the effect of the drug. At the end of the study, the eyes are removed, histologically processed and all lesions can be seen (including those that can not be detected by angiography).
Groups of 8 rats/dosage group are neovascularized by laser burns, followed by immediate treatment of the eye with a cobalamin-paclitaxel bioconjugate prepared in accordance with Example 1. Dosages used are 1.5 μg/2 μL, 5.0 μg/2 μL, and 15 μg/2 μL. The treatments also include a vehicle and Kenacort Retard® (4% triamcinolone acetonide). After 21 days, the eyes are removed, histologically processed, and the lesion size scored in μm^3.

[5] = test system: bFGF-stimulated formation of new blood vessel in the Matrigel plug; assay: Matrigel plug perfusion in vivo assay; details: mice, Matrigel and bFGF; for Matrigel Plug/Plasma Fluorescence Ratio: oral gavage
Procedure: A Matrigel® plug perfusion in vivo assay is performed to determine the anti-angiogenic efficiacy of the cobalamin-paclitaxel bioconjugate (Cob-Pac) of Example 1. The assay uses Matrigel®, a gelatinous protein mixture secreted by mouse tumor cells (BD Biosciences, San Jose, Calif.), to duplicate tissue environments. Matrigel® is liquid at […], but when injected into the animal, forms a solid plug. If a growth vessel stimulant such as basic fibroblast growth factor (bFGF) is mixed with the Matrigel®, the bFGF stimulates the formation of new blood vessel in the plug, which can be monitored in the animal via fluorescence techniques. In the current study, Matrigel® is injected either alone or with bFGF subcutaneously into mice.

[6] = 1.5 mg/kg paclitaxel delivered as bioconjugate
[7] = 2 mg/kg paclitaxel delivered as bioconjugate
[8] = 3 mg/kg paclitaxel delivered as bioconjugate
[9] = 6 mg/kg paclitaxel delivered as bioconjugate
[10] = 30 mg/kg paclitaxel delivered as bioconjugate

Structure (SMILES): CC(=O)O[C@H]1C(=O)[C@@]2(C)C([C@H](OC(=O)c3ccccc3)[C@]3(O)C[C@H](OC(=O)[C@H](OC(=O)C[NH+](C)CC[CH2][Co+][N]4/C5=C(/C)C6=N/C(=C\C7=NC(=C(/C)C8=NC(C(C)C4C(CC(N)=O)C5(C)CCC(=O)NCC(C)OP(=O)([O-])OC4C(CO)OC(n5cnc9cc(C)c(C)cc95)C4O)C(C)(CC(N)=O)C8CCC(N)=O)/C(C)(CC(N)=O)C7CCC(N)=O)C(C)(C)C6CCC(N)=O)[C@@H](NC(=O)c4ccccc4)c4ccccc4)C(C)=C1C3(C)C)[C@]1(OC(C)=O)COC1C[C@@H]2O.[Cl-] (stereo partly drawn) [cobalamin-paclitaxel bioconjugate, Cbl-(CH2)3N(CH3)CH2COO-2′-P7X]
- Anti-angiogenic effect by fluorescein leakage score (FIG. 1) ([1]; after 7 days, intermediate and high doses (5.0 and 15 μg/2 μL)): anti-angiogenic results
- Anti-angiogenic effect by fluorescein leakage score (FIG. 1) ([1]; after 14 days, high dose (15 μg/2 μL)): anti-angiogenic benefit
- Viable CEPs per microliter of peripheral blood [2, 6]: 0.4 per microliter of peripheral blood
- Viable CEPs per microliter of peripheral blood [2, 7]: 0.25 per microliter of peripheral blood
- Viable CEPs per microliter of peripheral blood [2, 8]: 0.4 per microliter of peripheral blood
- Viable CEPs per microliter of peripheral blood [2, 9]: 0.9 per microliter of peripheral blood
- Viable CEPs per microliter of peripheral blood [2, 10]: 1.2 per microliter of peripheral blood
- Most effective dose (decrease in viable CEPs) ([2]; 28-day dose study, dose as paclitaxel): about 2 mg/kg
- White blood cells per 10^4 peripheral blood cells (white blood cells; [6]): 6700 per 10^4 peripheral blood cells
- White blood cells per 10^4 peripheral blood cells (white blood cells; [7]): 6700 per 10^4 peripheral blood cells
- White blood cells per 10^4 peripheral blood cells (white blood cells; [8]): 7000 per 10^4 peripheral blood cells
- White blood cells per 10^4 peripheral blood cells (white blood cells; [9]): 6700 per 10^4 peripheral blood cells
- White blood cells per 10^4 peripheral blood cells (white blood cells; [10]): 8100 per 10^4 peripheral blood cells
- Toxicity by white blood cell count (neutropenia) (white blood cells; 28 days, absence of a decrease in white blood cell count): no neutropenia
- water solubility [3]: over 100 mg/ml
- Number of blood vessel lesions (FIG. 2) ([4]; 21 days, 1.5, 5.0 and 15 μg/2 μL): decrease in a concentration dependent manner
- Inhibition of new blood vessel growth (lesion study) ([4]; 21 days, high and medium concentrations (15 and 5.0 μg/2 μL)): efficacious in inhibiting new blood vessel growth
- Effect on growth of new blood vessels in Matrigel plug ([5]; each dose (2, 6, 30 mg/kg), greatest effect at 2 and 6 mg/kg): inhibits the growth of new blood vessels
- Matrigel Plug/Plasma Fluorescence Ratio ([5]; 2 mg/kg expressed in paclitaxel units): 0.0007
- Matrigel Plug/Plasma Fluorescence Ratio ([5]; 6 mg/kg expressed in paclitaxel units): 0.0005
- Matrigel Plug/Plasma Fluorescence Ratio ([5]; 30 mg/kg expressed in paclitaxel units): 0.0011
